What was measured:
[1] = tested on: Clostridium difficile; test: Activity against Clostridium difficile; format: cell-based; settings: relative to corresponding capreomycin IB phenyl urea analog
[2] = tested on: MRSA (Methicillin resistant Staphylococcus aureus, ATCC33591); test: MIC determination in MRSA; format: cell-based
Protocol: Cation Adjusted Mueller Hinton Broth (Teknova #M5860); MRSA (Methicillin resistant Staphylococcus aureus, ATCC33591). Test compounds: all compounds were dissolved in PBS at 10 mg/mL and stored at −20° C.
The method used for determination of MIC's follows the procedure described by the Clinical Laboratory Standards Institute (CLSI). A standardized inoculum of MRSA was prepared per CLSI methods yielding a final cell concentration of 5×10 (5) CFU/mL. 10× compound dilutions were prepared by performing 2 fold serial dilutions in Cation Adjusted Mueller Hinton Broth. The starting and ending concentrations were 640 μg/mL and 1.25 μg/mL, respectively for final assay concentrations of 64 µg/mL and 0.125 μg/mL. 10 μL of the 10× compound dilutions were added to 90 μL of the MRSA cell suspension in microplate wells. Plates were incubated in a 35° C. incubator for approximately 20 hours.

[3] = tested on: other genera of bacteria (Gram-positive, Gram-negative); settings: cited from earlier work
[4] = tested on: mycobacteria; settings: cited from earlier work

Molecule: C[C@@H]1NC(=O)[C@@H](N)CNC(=O)[C@H](C2CCNC(=N)N2)NC(=O)/C(=C/NC(=O)Nc2cccc(-c3ccccc3)c2)NC(=O)[C@H](CN)NC1=O (some centres unmarked) [Compound 73]
- fold more active against Clostridium difficile than the corresponding capreomycin IB phenyl urea analogs [1]: 4 fold
- activity against MRSA [2]: active

Molecule: Capreomycin
- activity against other genera of bacteria [3]: little activity
- efficacy against most Gram-positive bacteria (Staphylococcus) or Gram-negative bacteria (Escherichia coli) [3]: not efficacious
- activity against mycobacteria [4]: potent activity

Source: patent publication US20090203585A1, “CAPREOMYCIN DERIVATIVES AND THEIR USE AS ANTIBACTERIALS” (priority 2006, published 2009)
